Experimental data as given in patent US20240262848A1, “HETEROCYCLIC COMPOUNDS, COMPOSITIONS THEREOF, AND METHODS OF TREATMENT THEREWITH” (BeiGene, Ltd., priority 2022, published 2024).

Tests used:
[1] = molecular target: GST-tagged GDP-loaded KRAS G12D (amin acids 1-188) (Homo sapiens, UniProt P01116, G12D); test: KRAS G12D probe displacement assay (TR-FRET); format: binding; conditions: Table 5; KRAS G12D 0.5 nM, biotinylated probe 2 4 nM
Experimental: Plates are incubated at 24° C. for 1 hr.

[2] = system: pERK1/2(THR202/TYR204) level in AsPC-1 cell line; test: KRAS G12D pERK assay in AsPC-1 cells (HTRF); format: cell-based; conditions: Homo sapiens, ASPC1, Table 5, 2 h compound treatment
Experimental: AsPC-1 cell line was used in this study. Cells were maintained in RPMI-1640 supplemented with 10% fetal bovine serum (Thermo Fisher), 50 units/ml, penicillin and streptomycin (Thermo Fisher) and kept at 37° C. in a humidified atmosphere of 5% CO2 in air. Cells were reinstated from frozen stocks that were laid down within 30 passages from the original cells purchased. 30000 cells per well were seeded into a 96-well plate and incubated overnight. Cells were treated with a 10-point dilution series. The final compound concentration is from 0 to 10 μM. After 2 h compound treatment, cells were lysed, and the pERK1/2(THR202/TYR204) level in the cell lysates was detected by HTRF kit (Cisbio). In brief, a total of 16 μL of cell lysate from each well of a 96-well plate was transferred to a 384-well white assay plate. Lysate from each well was incubated with 2 μL of Eu3+-cryptate (donor) labeled anti-phospho-ERK1/2 and 2 μL of D2 (acceptor) labeled anti-phospho-ERK1/2 antibodies (Cisbio) overnight in dark at room temperature. When the donor and acceptor are in close proximity, excitation of the donor with laser triggers a Fluorescence Resonance Energy Transfer (FRET) towards the acceptor, which in turn fluoresces at 655 nm wavelength. FRET signals were measured using a PHERAstar FSX reader (BMG Labtech). IC50 determination was performed by fitting the curve of percent inhibition versus the log of the inhibitor concentration using Dotmatics.

[3] = system: pERK1/2(THR202/TYR204) level in SW620 cell line; test: KRAS G12V pERK assay in SW620 cells (HTRF); format: cell-based; conditions: Homo sapiens, SW-620, Table 4, 2 hrs compound treatment
Procedure, shortened: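 SW620 cells were treated for 2 h with a 10-point dilution series (final 0–10 μM) after overnight seeding. Lysates were then incubated overnight at room temperature with Eu3+-cryptate and acceptor anti-phospho-ERK1/2 antibodies, and HTRF was read at 655 nm. IC50 was fitted from percent inhibition versus log concentration.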

[4] = molecular target: GST-tagged GDP-loaded KRAS G12V (amino acids 1-169) (Homo sapiens, UniProt P01116, G12V); test: KRAS G12V probe displacement assay (TR-FRET); format: binding; conditions: Table 4; KRAS G12V 2 nM, biotinylated probe 2 2.5 nM
Experimental: Plates are incubated at 24 °C for 1 hr. […] After 1 hr incubation at 24° C.

Chain of GST-tagged GDP-loaded KRAS G12V (amino acids 1-169) (P01116 1-169 isoform P01116-2 G12V): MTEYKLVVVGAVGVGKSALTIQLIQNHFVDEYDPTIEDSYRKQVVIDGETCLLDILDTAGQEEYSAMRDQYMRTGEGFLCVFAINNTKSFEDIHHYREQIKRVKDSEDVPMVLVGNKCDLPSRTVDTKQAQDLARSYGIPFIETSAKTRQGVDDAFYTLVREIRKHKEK
Chain of GST-tagged GDP-loaded KRAS G12D (amin acids 1-188) (P01116 1-188 isoform P01116-2 G12D): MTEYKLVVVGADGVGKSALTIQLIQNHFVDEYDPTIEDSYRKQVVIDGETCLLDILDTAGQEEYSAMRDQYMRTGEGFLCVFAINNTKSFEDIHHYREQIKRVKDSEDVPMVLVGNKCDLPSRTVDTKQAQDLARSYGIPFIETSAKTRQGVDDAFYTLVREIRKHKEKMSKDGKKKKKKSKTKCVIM

CNCCN1CCCOc2nc(-c3cc(N)cc(Cl)c3C(F)(F)F)c(F)c3nc(OC[C@@]45CCCN4C[C@H](F)C5)nc1c23 [Example 17, 3-chloro-5-(4-fluoro-2-(((2R,7aS)-2-fluorotetrahydro-1H-pyrrolizin-7a(5H)-yl)methoxy)-11-(2-(methylamino)ethyl)-8,9,10,11-tetrahydro-7-oxa-1,3,6,11-tetraazacycloocta[de]naphthalen-5-yl)-4-(trifluoromethyl)aniline]
IC50 [1]: 9.6 nM

CNCCN1c2nc(OC[C@@]34CCCN3C[C@H](F)C4)nc3c(F)c(-c4cc(N)cc(Cl)c4C(F)(F)F)nc(c23)OCCC1C (stereo partly drawn) [Example 20, 3-chloro-5-(4-fluoro-2-(((2R,7aS)-2-fluorotetrahydro-1H-pyrrolizin-7a(5H)-yl)methoxy)-10-methyl-11-(2-(methylamino)ethyl)-8,9,10,11-tetrahydro-7-oxa-1,3,6,11-tetraazacycloocta[de]naphthalen-5-yl)-4-(trifluoromethyl)aniline]
IC50 [1]: 0.43 nM
IC50 [2]: 1010 nM

CN1c2nc(OC[C@@]34CCCN3C[C@H](F)C4)nc3c(F)c(-c4cc(N)cc(Cl)c4C(F)(F)F)nc(c23)OCC2CNCC21 (stereo partly drawn) [Example 27, 3-chloro-5-(4-fluoro-2-(((2R,7aS)-2-fluorotetrahydro-1H-pyrrolizin-7a(5H)-yl)methoxy)-12-methyl-8a, 9,10,11,11a, 12-hexahydro-8H-7-oxa-1,3,6,10,12-pentaazacyclopenta[5,6]cycloocta[1,2,3-de]naphthalen-5-yl)-4-(trifluoromethyl)aniline]
IC50 [1]: 0.95 nM
IC50 [2]: 836 nM

CNCCN1c2nc(OC[C@@]34CCCN3C[C@H](F)C4)nc3c(F)c(-c4cc(N)cc(Cl)c4C(F)(F)F)nc(c23)OCC12CCC2 [Example 36, 3-chloro-5-(4′-fluoro-2′-(((2R,7aS)-2-fluorotetrahydro-1H-pyrrolizin-7a(5H)-yl)methoxy)-10′-(2-(methylamino)ethyl)-8′H, 10′H-7′-oxa-1′,3′,6′,10′-tetraazaspiro[cyclobutane-1,9′-cyclohepta[de]naphthalen]-1′(10a′), 2′0.3a′, 3 al′(6a′), 5′-pentaen-5′-yl)-4-(trifluoromethyl)aniline]
IC50 [1]: 1.1 nM
IC50 [2]: 2160 nM

CN(C)CCN1c2nc(OC[C@@]34CCCN3C[C@H](F)C4)nc3c(F)c(-c4cc(N)cc(Cl)c4C(F)(F)F)nc(c23)OCC12CCC2 [Example 37, 3-chloro-5-(10′-(2-(dimethylamino)ethyl)-4′-fluoro-2′-(((2R,7aS)-2-fluorotetrahydro-1H-pyrrolizin-7a(5H)-yl)methoxy)-8′H, 10′H-7′-oxa-1′,3′,6′,10′-tetraazaspiro[cyclobutane-1,9′-cyclohepta[de]naphthalen]-1′(10a′), 2′,3a′, 3 al′(6a′), 5′-pentaen-5′-yl)-4-(trifluoromethyl)aniline]
IC50 [1]: 2.3 nM
IC50 [2]: 639 nM

Nc1cc(Cl)c(C(F)(F)F)c(-c2nc3c4c(nc(OC[C@@]56CCCN5C[C@H](F)C6)nc4c2F)N([C@@H]2CCNC2)CCCO3)c1 [Example 41, 3-chloro-5-(4-fluoro-2-(((2R,7aS)-2-fluorotetrahydro-1H-pyrrolizin-7a(5H)-yl)methoxy)-11-((R)-pyrrolidin-3-yl)-8,9,10,11-tetrahydro-7-oxa-1,3,6,11-tetraazacycloocta[de]naphthalen-5-yl)-4-(trifluoromethyl)aniline]
IC50 [1]: 34 nM

CCN1c2nc(OC[C@@]34CCCN3C[C@H](F)C4)nc3c(F)c(-c4cc(N)cc(C)c4C(F)(F)F)nc(c23)OCCC12CC2 [Example 54, 3-(11-ethyl-4-fluoro-2-(((2R,7aS)-2-fluorotetrahydro-1H-pyrrolizin-7a(5H)-yl)methoxy)-8,9-dihydro-11H-7-oxa-1,3,6,11-tetraazaspiro[cycloocta[de]naphthalene-10,1′-cyclopropan]-1(11a), 2,3a, 3a^1(6a), 5-pentaen-5-yl)-5-methyl-4-(trifluoromethyl)aniline]
IC50 [3]: 51 nM
IC50 [4]: 1.7 nM

CCN1c2nc(OCC34CCCN3CC(F)C4)nc3c(F)c(-c4cc(N)cc(Cl)c4C(F)(F)F)nc(c23)OCCC12CC2 [Example 55, 3-chloro-5-(11-ethyl-4-fluoro-2-(((2R,7aS)-2-fluorotetrahydro-1H-pyrrolizin-7a(5H)-yl)methoxy)-8,9-dihydro-11H-7-oxa-1,3,6,11-tetraazaspiro[cycloocta[de]naphthalene-10,1′-cyclopropan]-1(11a), 2,3a, 3 al(6a), 5-pentaen-5-yl)-4-(trifluoromethyl)aniline]
IC50 [3]: 41 nM
IC50 [4]: 0.57 nM

CCN1c2nc(OC[C@@]34CCCN3C[C@H](F)C4)nc3c(F)c(-c4cc(N)cc(C)c4C(F)(F)F)nc(c23)OCCC12COC2 [Example 56, 3-(11-ethyl-4-fluoro-2-(((2R,7aS)-2-fluorotetrahydro-1H-pyrrolizin-7a(5H)-yl)methoxy)-8,9-dihydro-11H-7-oxa-1,3,6,11-tetraazaspiro[cycloocta[de]naphthalene-10,3′-oxetan]-1(11a), 2,3a, 3a^1(6a),5-pentaen-5-yl)-5-methyl-4-(trifluoromethyl)aniline]
IC50 [3]: 33 nM
IC50 [4]: 1.2 nM

CCN1c2nc(OC[C@@]34CCCN3C[C@H](F)C4)nc3c(F)c(-c4cc(N)cc(C)c4C(F)(F)F)nc(c23)O[C@H]2COCC[C@@H]21 [Example 57, 3-((7aR,11aS)-12-ethyl-4-fluoro-2-(((2R,7aS)-2-fluorotetrahydro-1H-pyrrolizin-7a(5H)-yl)methoxy)-7a, 8,10,11,11a, 12-hexahydro-7,9-dioxa-1,3,6,12-tetraazapleiaden-5-yl)-5-methyl-4-(trifluoromethyl)aniline]
IC50 [3]: 41 nM
IC50 [4]: 0.83 nM

CCN1c2nc(OC[C@@]34CCCN3C[C@H](F)C4)nc3c(F)c(-c4cc(N)cc(Cl)c4C(F)(F)F)nc(c23)O[C@H]2COCC[C@@H]21 [Example 58, 3-chloro-5-((7aR,11aS)-12-ethyl-4-fluoro-2-(((2R,7aS)-2-fluorotetrahydro-1H-pyrrolizin-7a(5H)-yl)methoxy)-7a, 8,10,11,11a, 12-hexahydro-7,9-dioxa-1,3,6,12-tetraazaplciaden-5-yl)-4-(trifluoromethyl)aniline]
IC50 [3]: 29 nM
IC50 [4]: 0.49 nM

CN1c2nc(OCC3(C)CCC4COCCN4C3)nc3c(F)c(-c4cc(N)cc(Cl)c4C(F)(F)F)nc(c23)O[C@H]2COCC[C@@H]21 (stereo partly drawn) [Example 60, 3-chloro-5-((7aR,11aS)-4-fluoro-12-methyl-2-((7-methyloctahydropyrido[2,1-c][1,4]oxazin-7-yl)methoxy)-7a, 8,10,11,11a, 12-hexahydro-7,9-dioxa-1,3,6,12-tetraazapleiaden-5-yl)-4-(trifluoromethyl)aniline]
IC50 [3]: 20 nM
IC50 [4]: 0.63 nM

CN1CCOC(C)(COc2nc3c4c(nc(-c5cc(N)cc(Cl)c5C(F)(F)F)c(F)c4n2)O[C@H]2COCC[C@@H]2N3C)C1 (stereo partly drawn) [Example 63, 3-chloro-5-((7aR,11aS)-2-((2,4-dimethylmorpholin-2-yl)methoxy)-4-fluoro-12-methyl-7a, 8,10,11,11a, 12-hexahydro-7,9-dioxa-1,3,6,12-tetraazapleiaden-5-yl)-4-(trifluoromethyl)aniline]
IC50 [3]: 25 nM
IC50 [4]: 1.1 nM

CN1c2nc(OC[C@@]34CCCN3C[C@H](F)C4)nc3c(F)c(-c4cc(N)c(F)c(Cl)c4C(F)(F)F)nc(c23)O[C@H]2COCC[C@@H]21 [Example 66, 3-chloro-2-fluoro-5-((7aR,11aS)-4-fluoro-2-(((2R,7aS)-2-fluorotetrahydro-1H-pyrrolizin-7a(5H)-yl)methoxy)-12-methyl-7a, 8,10,11,11a, 12-hexahydro-7,9-dioxa-1,3,6,12-tetraazapleiaden-5-yl)-4-(trifluoromethyl)aniline]
IC50 [3]: 5.8 nM
IC50 [4]: 0.47 nM

Cc1c(F)c(N)cc(-c2nc3c4c(nc(OC[C@@]56CCCN5C[C@H](F)C6)nc4c2F)N(C)[C@H]2CCOC[C@@H]2O3)c1C(F)(F)F [Example 67, 2-fluoro-5-((7aR,11aS)-4-fluoro-2-(((2R,7aS)-2-fluorotetrahydro-1H-pyrrolizin-7a(5H)-yl)methoxy)-12-methyl-7a, 8,10,11,11a, 12-hexahydro-7,9-dioxa-1,3,6,12-tetraazapleiaden-5-yl)-3-methyl-4-(trifluoromethyl)aniline]
IC50 [3]: 12 nM
IC50 [4]: 0.65 nM
